# PMC10850954, “HDAC6/aggresome processing pathway importance for inflammasome formation is context-dependent” (The Journal of Biological Chemistry, 2024)
# Assays:
# NLRP3 inflammasome = experiment: IL-1β release in PBMCs after NLRP3 inflammasome activation; assay type: cell-based, human; conditions: for effect on IL-1β release (in words): all stimulatory conditions (MSU, nigericin, ATP), vs DMSO; for IL-1β reduction as compared to DMSO: compound 24 h, LPS 0.2 ng/ml 4 h
# Protocol: Figure 3 Effect of […] mediated HDAC6 degradation on NLRP3 inflammasome activation in PBMCs.A, schematic of the mode of action of an HDAC6 degrader. The PROTAC engages both HDAC6 and the E3 ligase cereblon (CRBN), which then leads to ubiquitination and degradation of HDAC6. […] PBMCs (without or with LPS priming for 4 h) were treated with the indicated compounds and HDAC6 levels were detected by immunoblotting with an anti-HDAC6 antibody. Detection of actin was used as a control for loading. CGP, CGP084892 (Caspase-1 inhibitor); AFN700 is an inhibitor of the NF-kB pathway (IKK inhibitor). E, HDAC6 degradation impact on IL-1β release in PBMCs following MSU 200 μg/ml (5 h), nigericin 2 μM (2 h) or ATP 3 mM (0.5 h) treatment. Cells were first primed with 0.2 ng/ml LPS for 4 h at 37 °C, then treated with MSU, nigericin, and ATP as indicated.
# Human IL-1β and IL-18 were determined with Cisbio HTRF Cisbio Human IL1β (#62HIL1BPET) and Human IL18 (#62HIL18PEG) protocols. All the data were from 3 or 4 independent biological replicates.
# For BMDM cells, 1.5 × 10^6 cells per well were seeded in six-well plates. After priming with 1 μg/ml LPS (Invivogen #tlrl-b5lps), cells were challenged with 200 μg/ml MSU crystals (Invivogen #tlrl-msu-25) for 6 h or 20 μM nigericin (Sigma-Aldrich #N7143-5MG) for 30 min. […] The supernatant was removed, and fresh medium was added to have cells at a density of around 5 × 10^5 cells/ml. 100 μl cells were seeded in 96-well plate and incubated for 1∼2 days. During the culturing, dTAG was added when needed to degrade the DARPin. […] For PBMCs, 3 × 10^4 cells per were seeded, and primed with 0.2 ng/ml LPS for 4 h and then incubated with MSU 200 μg/ml (5 h), nigericin 2 μM (2 h) or ATP 3 mM (0.5 h). For pyrin inflammasome, U937-pyrin cells were seeded in 96 well after 0.5 μM PMA treatment for 3 h and then challenged by BAA473 (200 μM) for 4 h at 37 °C.
# HDAC6 = target: T1, HDAC6 (Homo sapiens, UniProt Q9UBN7); experiment: HDAC6 degradation in pyrin-expressing U937 cells (immunoblot); assay type: cell-based; design: endogenous in cells; conditions: 0.1 μM to 10 μM
# T1 sequence (Q9UBN7 1-1215): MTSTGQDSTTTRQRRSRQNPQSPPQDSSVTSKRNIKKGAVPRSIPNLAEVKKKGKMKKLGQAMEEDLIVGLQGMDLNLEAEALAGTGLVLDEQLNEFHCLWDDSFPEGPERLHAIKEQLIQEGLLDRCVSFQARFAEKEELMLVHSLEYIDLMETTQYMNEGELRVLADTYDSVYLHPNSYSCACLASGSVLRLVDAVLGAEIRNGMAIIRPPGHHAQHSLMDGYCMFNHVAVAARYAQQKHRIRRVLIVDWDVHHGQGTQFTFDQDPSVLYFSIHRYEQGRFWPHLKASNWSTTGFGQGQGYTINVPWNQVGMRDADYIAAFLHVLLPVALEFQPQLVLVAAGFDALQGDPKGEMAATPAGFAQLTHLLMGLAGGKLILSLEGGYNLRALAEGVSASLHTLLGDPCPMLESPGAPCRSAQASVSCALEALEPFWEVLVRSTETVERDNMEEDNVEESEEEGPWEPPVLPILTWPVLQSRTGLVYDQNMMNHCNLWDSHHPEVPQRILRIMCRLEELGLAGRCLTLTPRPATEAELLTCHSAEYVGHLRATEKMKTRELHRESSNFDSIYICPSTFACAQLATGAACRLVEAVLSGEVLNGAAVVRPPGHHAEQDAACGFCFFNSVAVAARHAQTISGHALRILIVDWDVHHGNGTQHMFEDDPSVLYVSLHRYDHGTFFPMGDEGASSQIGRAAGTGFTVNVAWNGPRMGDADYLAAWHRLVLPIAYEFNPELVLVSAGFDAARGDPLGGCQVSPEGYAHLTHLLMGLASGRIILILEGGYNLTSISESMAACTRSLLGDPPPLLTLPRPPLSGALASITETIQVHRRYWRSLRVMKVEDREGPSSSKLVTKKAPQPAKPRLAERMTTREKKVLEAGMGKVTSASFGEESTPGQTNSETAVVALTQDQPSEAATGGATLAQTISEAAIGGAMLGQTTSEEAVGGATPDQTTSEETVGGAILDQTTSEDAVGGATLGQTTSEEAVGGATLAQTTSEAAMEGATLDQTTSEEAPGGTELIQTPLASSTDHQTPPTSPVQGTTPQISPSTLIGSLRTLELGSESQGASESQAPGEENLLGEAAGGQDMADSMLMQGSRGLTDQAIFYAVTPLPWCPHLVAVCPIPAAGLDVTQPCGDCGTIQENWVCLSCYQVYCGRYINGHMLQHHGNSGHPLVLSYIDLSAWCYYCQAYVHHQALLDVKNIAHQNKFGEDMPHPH
# Protocol: Cells were treated with the indicated compounds and HDAC6 was detected by immunoblotting with an anti-HDAC6 antibody. Detection of actin was used as a control for protein loading. […] The membrane was blocked with 5% milk-TBS, and then incubated with primary antibodies overnight at 4 °C. The signal was developed with HRP-conjugated secondary antibodies and Amersham ECL Western Blotting Detection Reagent (Cytiva#RPN2106).
Compound,effect on IL-1β release (in words) (NLRP3 inflammasome),HDAC6 degradation (HDAC6),IL-1β reduction as compared to DMSO (NLRP3 inflammasome; ATP 3 mM 0.5 h) [%],IL-1β reduction as compared to DMSO (NLRP3 inflammasome; MSU 200 μg/ml 5 h),IL-1β reduction as compared to DMSO (NLRP3 inflammasome; nigericin 2 μM 2 h) [%]
CN1C(=O)CCC(N2C(=O)c3cccc(NCCCC(=O)N(C)c4ccc(NC(=O)CCCCCCC(=O)NO)cc4)c3C2=O)C1=O (stereo not drawn) [XY-07-191],partial inhibition,–,–,–,–
CN(C(=O)CCCNc1cccc2c1C(=O)N(C1CCC(=O)NC1=O)C2=O)c1ccc(NC(=O)CCCCCCC(=O)NO)cc1 (stereo not drawn) [XY-07-35],clearly reduced,efficiently degraded,40,ca. 60%,40
